According to the NIST ThermoML archive (doi:10.1021/acs.jced.6b00169):
Where “and” joins values, the source holds several entries; their conditions need not be identical. Identical values can stand only once.

Details: for vapor or sublimation pressure: Liquid, Closed cell (Static) method; for mass density: Fluid (supercritical or subcritical phases), isochoric method

FC(F)(F)/C=C\C(F)(F)F [(Z)-1,1,1,4,4,4-hexafluorobut-2-ene]
Details | vapor or sublimation pressure
323.47 K | 182.2 kPa
323.49 K | 177.9 kPa
323.5 K | 180.6 kPa [middle of 4 runs]
323.51 K | 181.2 kPa [middle of 7 runs]
323.52 K | 180.2 kPa [middle of 5 runs]
323.53 K | 182.1 kPa and 186.3 kPa
333.44 K | 247.7 kPa
333.45 K | 248.1 kPa
333.46 K | 243.8 kPa
333.47 K | 247.2 kPa and 243.5 kPa
333.48 K | 246.1 kPa and 248.3 kPa
333.49 K | 247.6 kPa [middle of 9 runs]
333.5 K | 254.8 kPa
343.45 K | 331.8 kPa
343.46 K | 331.6 kPa
343.48 K | 331.2 kPa [middle of 6 runs]
343.49 K | 330.6 kPa [middle of 7 runs]
343.5 K | 343.2 kPa and 336.4 kPa and 331.7 kPa
353.46 K | 435.3 kPa
353.47 K | 435.3 kPa
353.48 K | 435.2 kPa and 429.9 kPa and 430.2 kPa
353.49 K | 435.2 kPa [middle of 5 runs]
353.5 K | 434.6 kPa [middle of 4 runs]
363.46 K | 562 kPa and 561.7 kPa
363.47 K | 555.8 kPa and 556.4 kPa
363.48 K | 562.1 kPa [middle of 4 runs]
363.49 K | 562.2 kPa [middle of 5 runs]
363.5 K | 567.8 kPa and 559.4 kPa
373.45 K | 714 kPa
373.47 K | 714.4 kPa [middle of 4 runs]
373.48 K | 731.7 kPa and 715.2 kPa
373.49 K | 713.5 kPa [middle of 5 runs]
373.5 K | 716.9 kPa [middle of 4 runs]
383.45 K | 895.1 kPa
383.46 K | 888.7 kPa
383.47 K | 896.6 kPa and 889.9 kPa and 895.9 kPa
383.48 K | 896.5 kPa and 895.3 kPa
383.49 K | 893.4 kPa [middle of 6 runs]
383.5 K | 921.5 kPa and 896.4 kPa
393.47 K | 1103.1 kPa and 1109.7 kPa
393.48 K | 1112.1 kPa and 1110.3 kPa
393.49 K | 1109.6 kPa [middle of 4 runs]
393.5 K | 1111.5 kPa [middle of 4 runs]
393.51 K | 1113.3 kPa and 1107 kPa
403.41 K | 1365.2 kPa
403.47 K | 1361.3 kPa
403.48 K | 1355 kPa
403.49 K | 1364.2 kPa [middle of 4 runs]
403.5 K | 1358.5 kPa and 1362.4 kPa
403.51 K | 1363.4 kPa and 1358.6 kPa and 1364.3 kPa
413.47 K | 1648.2 kPa and 1655.1 kPa
413.49 K | 1657.8 kPa [middle of 4 runs]
413.5 K | 1651.9 kPa
413.51 K | 1658.4 kPa [middle of 4 runs]
423.47 K | 1995.7 kPa
423.48 K | 2000.2 kPa and 1989.3 kPa
423.49 K | 2000.4 kPa and 1992.9 kPa and 1997.8 kPa
423.5 K | 1990 kPa and 1999.2 kPa
423.51 K | 1999.9 kPa and 1993.1 kPa and 1999.7 kPa
433.46 K | 2391.8 kPa
433.47 K | 2384.5 kPa
433.49 K | 2396.8 kPa and 2389.4 kPa and 2393.9 kPa
433.5 K | 2385.2 kPa and 2388.6 kPa
433.51 K | 2396.2 kPa
433.52 K | 2395.9 kPa
443.45 K | 2854.5 kPa
443.47 K | 2837.9 kPa
443.5 K | 2847.4 kPa and 2860.1 kPa
443.51 K | 2859.8 kPa and 2850.8 kPa

Details | mass density [kg/m3]
333.47 K, 5013.6 kPa | 1294.9
333.49 K, 4294.8 kPa | 1291.4
343.5 K, 9927.3 kPa | 1290.8
353.5 K, 1179.2 kPa | 1214.2
363.49 K, 3108.6 kPa | 1196.7
363.5 K, 5627.6 kPa | 1213.6
373.49 K, 7319.3 kPa | 1196.2
383.48 K, 2373.8 kPa | 1121.1
393.48 K, 5697.9 kPa | 1120.5
393.51 K, 1151.8 kPa | 1038.9
403.48 K, 1382.1 kPa | 964.9
403.49 K, 1273.1 kPa | 87.8
403.5 K, 9039.9 kPa | 1120
403.51 K, 2538.6 kPa | 1038.4
413.48 K, 1705.4 kPa | 964.4
413.49 K, 1667.6 kPa | 884.8
413.5 K, 1339.2 kPa | 87.8
413.51 K, 5100.3 kPa | 1037.9
423.48 K, 3720.9 kPa | 964
423.49 K, 2049.1 kPa | 884.4
423.5 K, 1403.2 kPa | 87.7
423.51 K, 7690 kPa | 1037.4
433.47 K, 2440.9 kPa | 790.6
433.49 K, 1466 kPa | 87.7
433.49 K, 3342.9 kPa | 883.9
433.49 K, 5765 kPa | 963.5
433.5 K, 2159.2 kPa | 167.2
443.48 K, 2727.2 kPa | 261.3
443.48 K, 3403.1 kPa | 790.2
443.49 K, 2855.8 kPa | 451.8
443.49 K, 2856.2 kPa | 410.2
443.49 K, 2906.1 kPa | 659.8
443.49 K, 4930.5 kPa | 883.5
443.5 K, 1526.7 kPa | 87.6
443.5 K, 2301.4 kPa | 167.1
443.5 K, 2856.5 kPa | 556.1
443.5 K, 2857 kPa | 496.8
443.5 K, 3041.4 kPa | 734.7
443.5 K, 7837.5 kPa | 963.1
443.51 K, 2855.3 kPa | 532.1
443.51 K, 2860.2 kPa | 589.2
444.48 K, 2904 kPa | 410.2
444.48 K, 2905.8 kPa | 451.8
444.49 K, 2907.9 kPa | 496.8
444.49 K, 2909.6 kPa | 556.1
444.5 K, 2907.5 kPa | 532.1
444.5 K, 2918.3 kPa | 589.2
445.48 K, 2948.7 kPa | 410.1
445.48 K, 2955 kPa | 451.8
445.49 K, 2960.5 kPa | 496.8
445.49 K, 2967.6 kPa | 556.1
445.49 K, 2979 kPa | 589.2
445.5 K, 2963.5 kPa | 532.1
446.47 K, 2992.8 kPa | 410.1
446.47 K, 3039.9 kPa | 589.2
446.48 K, 3003.8 kPa | 451.8
446.49 K, 3019.2 kPa | 532.1
446.49 K, 3024.7 kPa | 556
446.5 K, 3013.3 kPa | 496.8
447.47 K, 3036.6 kPa | 410.1
447.49 K, 3052.3 kPa | 451.8
447.49 K, 3075.5 kPa | 532
447.49 K, 3102.7 kPa | 589.1
447.5 K, 3083 kPa | 556
447.51 K, 3065.9 kPa | 496.8
448.47 K, 3080.1 kPa | 410.1
448.48 K, 3099.7 kPa | 451.7
448.49 K, 3131.1 kPa | 532
448.49 K, 3165.1 kPa | 589.1
448.5 K, 3117.9 kPa | 496.7
448.5 K, 3140.9 kPa | 556
449.46 K, 3123.1 kPa | 410.1
449.48 K, 3147.7 kPa | 451.7
449.49 K, 3187.7 kPa | 532
449.5 K, 3170.6 kPa | 496.7
449.5 K, 3200.1 kPa | 556
449.5 K, 3229.7 kPa | 589.1
450.46 K, 3166.1 kPa | 410
450.48 K, 3195.5 kPa | 451.7
450.5 K, 3223.3 kPa | 496.7
450.5 K, 3259.2 kPa | 555.9
450.5 K, 3293.6 kPa | 589
450.51 K, 3244.9 kPa | 532
451.47 K, 3209.5 kPa | 410
451.48 K, 3243 kPa | 451.7
451.49 K, 3357.7 kPa | 589
451.5 K, 3275.9 kPa | 496.7
451.5 K, 3318.3 kPa | 555.9
451.51 K, 3300.8 kPa | 531.9
452.47 K, 3252.2 kPa | 410
452.48 K, 3290.8 kPa | 451.7
452.49 K, 3328.2 kPa | 496.6
452.49 K, 3378.2 kPa | 555.9
452.49 K, 3422.9 kPa | 589
452.5 K, 3358.3 kPa | 531.9
453.47 K, 3294.8 kPa | 410
453.48 K, 3200.2 kPa | 348.3
453.49 K, 3338.4 kPa | 451.6
453.49 K, 3381.2 kPa | 496.6
453.49 K, 4021.4 kPa | 734.4
453.49 K, 9923.8 kPa | 962.6
453.5 K, 1586.1 kPa | 87.6
453.5 K, 2978.8 kPa | 261.1
453.5 K, 3415.5 kPa | 531.9
453.5 K, 3438.5 kPa | 555.9
453.5 K, 3477.4 kPa | 589
453.5 K, 3489.4 kPa | 589
453.5 K, 3654.8 kPa | 659.5
453.5 K, 4584 kPa | 789.8
453.5 K, 6552.2 kPa | 883.1
453.51 K, 2439 kPa | 167
453.51 K, 3355.4 kPa | 473.8
453.51 K, 3423.1 kPa | 534.1
453.52 K, 3308.4 kPa | 416.3
463.47 K, 3811.6 kPa | 451.7
463.48 K, 3548.1 kPa | 348.1
463.49 K, 5796.3 kPa | 789.4
463.5 K, 1644.5 kPa | 87.5
463.5 K, 3221.4 kPa | 261
463.5 K, 4145.4 kPa | 588.7
463.5 K, 4465.6 kPa | 659.2
463.5 K, 8195.5 kPa | 882.7
463.51 K, 2573 kPa | 166.9
463.51 K, 3856.7 kPa | 473.6
463.51 K, 4003.3 kPa | 533.8
463.52 K, 3741 kPa | 416.1
463.84 K, 5039.9 kPa | 734
473.46 K, 4282.9 kPa | 451.5
473.49 K, 3889.2 kPa | 347.9
473.49 K, 5297.9 kPa | 658.9
473.49 K, 6084.9 kPa | 733.7
473.49 K, 7031.2 kPa | 789.1
473.5 K, 1702.6 kPa | 87.5
473.5 K, 3458.3 kPa | 260.9
473.5 K, 4828.4 kPa | 588.4
473.5 K, 9855 kPa | 882.3
473.51 K, 2705 kPa | 166.8
473.51 K, 4169.1 kPa | 416
473.51 K, 4592.6 kPa | 533.6
473.52 K, 4360 kPa | 473.3
483.45 K, 4753 kPa | 451.3
483.48 K, 8280.1 kPa | 788.7
483.49 K, 4225.7 kPa | 347.8
483.49 K, 6143.2 kPa | 658.6
483.5 K, 1760.4 kPa | 87.5
483.5 K, 3690.6 kPa | 260.8
483.5 K, 4863.2 kPa | 473.1
483.5 K, 5186.3 kPa | 533.3
483.5 K, 5522.5 kPa | 588.1
483.51 K, 2834.3 kPa | 166.8
483.51 K, 4596.7 kPa | 415.8
483.51 K, 7145.4 kPa | 733.3
493.49 K, 4559.3 kPa | 347.6
493.5 K, 3920 kPa | 260.6
493.5 K, 6223.9 kPa | 587.8
493.51 K, 1817.2 kPa | 87.4
493.51 K, 2962 kPa | 166.7
493.51 K, 5368 kPa | 472.9
503.5 K, 4890.2 kPa | 347.4
503.51 K, 6930.9 kPa | 587.6
